PMC5947317 (ACS chemical biology, 2017)
Read-outs that look alike come from different tables or passages of the source.

Assays:
UCHL1 [1] = biological target: T1, UCHL1 (Homo sapiens, UniProt P09936); test: Rapid dilution reversibility assay; assay type: biochemical; settings: incubated at ten times IC50, diluted 100-fold; normalized to DMSO
T1 sequence (P09936 1-223): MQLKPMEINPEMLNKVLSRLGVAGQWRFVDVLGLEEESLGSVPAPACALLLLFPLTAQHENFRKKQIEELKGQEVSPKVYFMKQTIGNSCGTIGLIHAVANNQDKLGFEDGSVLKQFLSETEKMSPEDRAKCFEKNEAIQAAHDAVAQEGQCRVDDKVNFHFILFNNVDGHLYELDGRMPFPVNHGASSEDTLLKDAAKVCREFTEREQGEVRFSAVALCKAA

UCHL1 [2] = biological target: T1, UCHL1; test: Ub-AMC assay with recombinant UCHL1; assay type: biochemical; settings: for difference in IC50 value (selectivity for UCHL1): versus UCHL3, UCHL5, USP2 catalytic core
endogenous UCHL1 = biological target: T2, endogenous UCHL1 (Homo sapiens, UniProt P09936); assay type: biochemical; settings: 100 μM and 20 μM of compound; HEK293T cell lysates
T2 sequence (P09936 1-223): T1 sequence (P09936 1-223)

HA-UCHL1 [3] = biological target: T3, HA-UCHL1 (Homo sapiens, UniProt P09936); test: AlphaLISA DUB assay miniaturized to 1536-well format; assay type: biochemical
T3 sequence (P09936 1-223): T1 sequence (P09936 1-223)

full length USP15 = biological target: T4, full length USP15 (Homo sapiens, UniProt Q9Y4E8); test: Ub-AMC selectivity assay, full length USP15; assay type: biochemical; settings: 114 μM
T4 sequence (Q9Y4E8 1-981): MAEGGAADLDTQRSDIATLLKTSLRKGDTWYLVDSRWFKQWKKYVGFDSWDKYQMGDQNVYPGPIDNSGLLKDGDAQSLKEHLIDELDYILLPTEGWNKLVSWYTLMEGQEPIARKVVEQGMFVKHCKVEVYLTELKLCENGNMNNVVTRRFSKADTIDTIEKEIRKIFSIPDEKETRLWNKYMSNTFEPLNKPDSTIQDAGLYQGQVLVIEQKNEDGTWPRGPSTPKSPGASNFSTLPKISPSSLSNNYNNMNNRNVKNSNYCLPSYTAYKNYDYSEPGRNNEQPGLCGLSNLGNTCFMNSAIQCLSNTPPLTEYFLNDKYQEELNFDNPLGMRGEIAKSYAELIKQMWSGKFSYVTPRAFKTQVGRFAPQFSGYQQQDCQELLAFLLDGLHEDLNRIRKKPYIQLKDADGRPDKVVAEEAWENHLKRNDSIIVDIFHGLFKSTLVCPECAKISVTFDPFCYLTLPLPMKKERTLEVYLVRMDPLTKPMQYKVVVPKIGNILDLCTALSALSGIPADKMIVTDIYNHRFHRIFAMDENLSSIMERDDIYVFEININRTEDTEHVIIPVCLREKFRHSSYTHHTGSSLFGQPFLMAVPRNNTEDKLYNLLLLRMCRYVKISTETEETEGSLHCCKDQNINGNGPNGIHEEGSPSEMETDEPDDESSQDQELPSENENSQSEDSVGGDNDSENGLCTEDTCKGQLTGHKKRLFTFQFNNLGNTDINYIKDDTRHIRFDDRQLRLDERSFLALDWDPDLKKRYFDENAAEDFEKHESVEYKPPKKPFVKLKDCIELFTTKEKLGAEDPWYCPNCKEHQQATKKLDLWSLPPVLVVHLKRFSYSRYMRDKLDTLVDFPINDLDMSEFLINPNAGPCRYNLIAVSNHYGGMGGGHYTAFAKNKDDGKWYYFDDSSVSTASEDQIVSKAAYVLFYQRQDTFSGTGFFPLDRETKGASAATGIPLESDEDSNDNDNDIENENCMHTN

USP2 catalytic core = biological target: T5, USP2 catalytic core (Homo sapiens, UniProt O75604); test: Ub-AMC selectivity assay, USP2 catalytic core; assay type: biochemical; settings: 114 μM
T5 sequence (O75604 267-599 limits assumed): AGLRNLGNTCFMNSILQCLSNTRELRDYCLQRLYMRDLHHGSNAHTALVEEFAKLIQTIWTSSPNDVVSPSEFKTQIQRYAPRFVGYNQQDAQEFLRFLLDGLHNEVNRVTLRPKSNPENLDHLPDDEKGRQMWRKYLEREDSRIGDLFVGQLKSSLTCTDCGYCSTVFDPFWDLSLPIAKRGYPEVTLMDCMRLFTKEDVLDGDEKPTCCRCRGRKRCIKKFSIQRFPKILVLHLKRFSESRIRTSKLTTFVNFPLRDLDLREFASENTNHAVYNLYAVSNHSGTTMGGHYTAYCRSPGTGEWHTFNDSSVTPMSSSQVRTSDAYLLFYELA

UCHL3 = biological target: T6, UCHL3 (Homo sapiens, UniProt P15374); test: Ub-AMC selectivity assay, UCHL3; assay type: biochemical; settings: 114 μM
T6 sequence (P15374 1-230): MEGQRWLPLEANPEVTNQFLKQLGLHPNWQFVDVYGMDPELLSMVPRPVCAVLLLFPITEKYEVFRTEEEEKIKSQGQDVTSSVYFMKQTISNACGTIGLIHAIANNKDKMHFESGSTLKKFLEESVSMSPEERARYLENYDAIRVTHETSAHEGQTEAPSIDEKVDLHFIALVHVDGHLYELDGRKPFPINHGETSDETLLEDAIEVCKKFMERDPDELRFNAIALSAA

UCHL5 = biological target: T7, UCHL5 (Homo sapiens, UniProt Q9Y5K5); test: Ub-AMC selectivity assay, UCHL5; assay type: biochemical; settings: 114 μM
T7 sequence (Q9Y5K5 1-329): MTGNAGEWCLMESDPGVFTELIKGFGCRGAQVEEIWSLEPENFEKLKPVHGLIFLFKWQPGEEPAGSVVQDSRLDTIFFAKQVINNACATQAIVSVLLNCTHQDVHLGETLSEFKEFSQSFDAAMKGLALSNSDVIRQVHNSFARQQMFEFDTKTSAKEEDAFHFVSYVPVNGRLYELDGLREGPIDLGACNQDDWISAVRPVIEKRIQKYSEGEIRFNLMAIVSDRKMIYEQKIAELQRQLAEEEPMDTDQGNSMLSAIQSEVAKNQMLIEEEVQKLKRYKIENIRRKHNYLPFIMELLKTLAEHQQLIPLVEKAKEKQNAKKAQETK

HA-UCHL1 [4] = biological target: T3, HA-UCHL1; settings: HEK293T cell lysates; Western blot, anti-HA
UCHL1 [5] = settings: cited from earlier work
HA-UCHL1 [6] = biological target: T3, HA-UCHL1; test: Cell lysate AlphaLISA DUB assay, 384-well format; assay type: biochemical; settings: 384-well plate format; dose-response

CC1=C(O)C(=O)C=C2C1=CC=C1[C@@]2(C)CC[C@@]2(C)[C@@H]3C[C@](C)(C(=O)O)CC[C@]3(C)CC[C@]12C [celastrol]
recovered UCHL1 activity after rapid dilution (UCHL1 [1]): > 80%
difference in IC50 value (selectivity for UCHL1) (UCHL1 [2]; USP15, Ub-AMC): ≥ 4 fold
inhibition of endogenous UCHL1 labeling by HA-UbVMe (endogenous UCHL1): stronger inhibition
IC50 (HA-UCHL1 [3]): 4.46 µM

CO[C@H]1/C=C/O[C@@]2(C)Oc3c(C)c(O)c4c(O)c(c(/C=N/N5CCN(C)CC5)c(O)c4c3C2=O)NC(=O)/C(C)=C\C=C\[C@H](C)[C@H](O)[C@@H](C)[C@@H](O)[C@@H](C)[C@H](OC(C)=O)[C@@H]1C [rifampicin, reference compound]
IC50 (UCHL1 [2]): 19.5 µM
IC50 (HA-UCHL1 [3]): 38.5 µM

COC(=O)C1=CO[C@@H](C)[C@@H]2CN3CCc4c([nH]c5ccc(OC)cc45)[C@@H]3C[C@H]12 [(-)-aricine]
recovered UCHL1 activity after rapid dilution (UCHL1 [1]): > 80%
inhibition at highest inhibitor concentration (full length USP15): no significant inhibition
inhibition at highest inhibitor concentration (USP2 catalytic core): no significant inhibition
IC50 (UCHL1 [2]; Ub-AMC as substrate): 47.7 µM
inhibition at highest inhibitor concentration (UCHL3): no significant inhibition
inhibition at highest inhibitor concentration (UCHL5): no significant inhibition
IC50 (HA-UCHL1 [3]; read-out: IC50 determined in the qHTS, qHTS, data not shown): 38.5 µM

CCN1C(=O)C=CC1=O [NEM, N-ethylmaleimide, reference compound]
recovered UCHL1 activity after rapid dilution (UCHL1 [1]): 3.9%

Cc1cnc(-c2ccccc2C(C)C)nc1NCc1ccc(-n2ccnn2)cc1 [ML323]
inhibition of UCHL1 labeling by biotin-UbVMe (HA-UCHL1 [4]): did not inhibit the labeling
activity against UCHL1 (UCHL1 [5]): inactive
inhibition in the AlphaLISA assay (HA-UCHL1 [6]): no obvious inhibition

CC(=O)Oc1c2c(c(CC=C(C)C)c3c1C(=O)C1=C[C@@H]4CC5C(C)(C)OC(C/C=C(\C)C(=O)O)(C4=O)[C@@]15O3)OC(C)(CCC=C(C)C)C=C2 (some centres unmarked) [acetyl isogambogic acid]
recovered UCHL1 activity after rapid dilution (UCHL1 [1]): > 80%
selectivity among UCHs and USPs tested (UCHL1 [2]; UCHL1 versus UCHL3, UCHL5, USP2 catalytic core, USP15, Ub-AMC): more promiscuous inhibitors
inhibition of endogenous UCHL1 labeling by HA-UbVMe (endogenous UCHL1): stronger inhibition
IC50 (HA-UCHL1 [3]): 30.6 µM

O=c1c2cc(O)c(O)cc2oc2cc(O)c([C@@H]3O[C@H](CO)[C@@H](O)[C@H](O)[C@H]3O)c(O)c12 [mangiferin]
recovered UCHL1 activity after rapid dilution (UCHL1 [1]): > 80%
IC50 (UCHL1 [2]): 8.9 µM
difference in IC50 value (selectivity for UCHL1) (UCHL1 [2]; USP15, Ub-AMC): ≥ 4 fold
inhibition of endogenous UCHL1 labeling by HA-UbVMe (endogenous UCHL1): stronger inhibition
IC50 (HA-UCHL1 [3]): 1.12 µM
